Experimental data: patent US8247211B2, “Glycopeptide antibiotics” (American Cyanamid Company, priority 2001, dated 2012)
Values after ≈ are worked out from the molar mass of the structure shown.

How the values were obtained:
Assay in all cases: In vitro antibacterial evaluation: minimum inhibitory concentration (MIC), broth dilution method
Format in all cases: cell-based
Enterococcus sp. = system: Enterococcus sp.
Outline: (§1)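 Susceptibility determined by NCCLS-recommended broth dilution (M7-A2), Muller-Hinton II […]. Concentration span 64-0.06 μg/mL, inoculum 5×10^5 CFU/mL. Isolates include strains resistant to methicillin, penicillin and/or vancomycin.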

Streptococcus sp. = system: Streptococcus sp.
Outline: as §1

Escherichia coli = details: strain GC 4560
Outline: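 Test strains, among them recent clinical isolates carrying methicillin, penicillin and/or vancomycin resistance, were inoculated at 5×10^5 CFU/mL. A broth dilution series spanning 64-0.06 μg/mL in Muller-Hinton II […] (NCCLS M7-A2) defined the MIC as the lowest growth-inhibiting concentration.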

Staphylococcus sp. = details: broth dilution, 18 hours at 35° C.
Outline: as §1

[1] = broth dilution, inoculum 5×10^5 CFU/mL, 18 hours at 35° C.

- MIC Enterococcus avium (GC 4558) (Enterococcus sp.; [1]): 32 µg/mL (≈ 21.7 µM)
- MIC Enterococcus faecalis (ATCC 29212) (Enterococcus sp.; [1]): 32 µg/mL (≈ 21.7 µM)
- MIC Enterococcus faecalis (GC 2242) (Enterococcus sp.; [1]): 32 µg/mL (≈ 21.7 µM)
- MIC Enterococcus faecalis (GC 2691) (Enterococcus sp.; [1]): 32 µg/mL (≈ 21.7 µM)
- MIC Enterococcus faecalis (GC 3059) (Enterococcus sp.; [1]): 32 µg/mL (≈ 21.7 µM)
- MIC Enterococcus faecalis (GC 4552) (Enterococcus sp.; [1]): 32 µg/mL (≈ 21.7 µM)
- MIC Enterococcus faecalis (GC 4553) (Enterococcus sp.; [1]): 32 µg/mL (≈ 21.7 µM)
- MIC Enterococcus faecalis (GC 4554) (Enterococcus sp.; [1]): 32 µg/mL (≈ 21.7 µM)
- MIC Enterococcus faecalis (GC 6189) (Enterococcus sp.; [1]): 32 µg/mL (≈ 21.7 µM)
- MIC Enterococcus faecium (GC 2243) (Enterococcus sp.; [1]): 32 µg/mL (≈ 21.7 µM)
- MIC Enterococcus faecium (GC 4556) (Enterococcus sp.; [1]): 32 µg/mL (≈ 21.7 µM)
- MIC Enterococcus faecium (GC 4557) (Enterococcus sp.; [1]): 8 µg/mL (≈ 5.43 µM)
- MIC Enterococcus faecalis (ATCC 29212) (Enterococcus sp.; strain ATCC 29212): 32 µg/mL (≈ 21.7 µM)
- MIC Enterococcus faecalis (GC 2242) (Enterococcus sp.; strain GC 2242): 32 µg/mL (≈ 21.7 µM)
- MIC Enterococcus faecium (GC 2243) (Enterococcus sp.; strain GC 2243): 32 µg/mL (≈ 21.7 µM)
- MIC Enterococcus faecalis (GC 2691) (Enterococcus sp.; strain GC 2691): 32 µg/mL (≈ 21.7 µM)
- MIC Enterococcus faecalis (GC 3059) (Enterococcus sp.; strain GC 3059): 32 µg/mL (≈ 21.7 µM)
- MIC Enterococcus faecalis (GC 4552) (Enterococcus sp.; strain GC 4552): 32 µg/mL (≈ 21.7 µM)
- MIC Enterococcus faecalis (GC 4553) (Enterococcus sp.; strain GC 4553): 32 µg/mL (≈ 21.7 µM)
- MIC Enterococcus faecalis (GC 4554) (Enterococcus sp.; strain GC 4554): 32 µg/mL (≈ 21.7 µM)
- MIC Enterococcus faecium (GC 4556) (Enterococcus sp.; strain GC 4556): 32 µg/mL (≈ 21.7 µM)
- MIC Enterococcus faecium (GC 4557) (Enterococcus sp.; strain GC 4557): 8 µg/mL (≈ 5.43 µM)
- MIC Enterococcus avium (GC 4558) (Enterococcus sp.; strain GC 4558): 32 µg/mL (≈ 21.7 µM)
- MIC Enterococcus faecalis (GC 6189) (Enterococcus sp.; strain GC 6189): 32 µg/mL (≈ 21.7 µM)
- MIC Streptococcus agalactiae (GC 4564) (Streptococcus sp.; [1]): 2 µg/mL (≈ 1.36 µM)
- MIC Streptococcus pneumoniae (ATCC 6301) (Streptococcus sp.; [1]): 1 µg/mL (≈ 0.679 µM)
- MIC Streptococcus pneumoniae (GC 1894) (Streptococcus sp.; [1]): 0.25 µg/mL (≈ 0.17 µM)
- MIC Streptococcus pneumoniae (GC 4565) (Streptococcus sp.; [1]): 1 µg/mL (≈ 0.679 µM)
- MIC Streptococcus pyogenes (GC 4563) (Streptococcus sp.; [1]): 1 µg/mL (≈ 0.679 µM)
- MIC Streptococcus pneumoniae (ATCC 6301) (Streptococcus sp.; strain ATCC 6301): 1 µg/mL (≈ 0.679 µM)
- MIC Streptococcus pneumoniae (GC 1894) (Streptococcus sp.; strain GC 1894): 0.25 µg/mL (≈ 0.17 µM)
- MIC Streptococcus pyogenes (GC 4563) (Streptococcus sp.; strain GC 4563): 1 µg/mL (≈ 0.679 µM)
- MIC Streptococcus agalactiae (GC 4564) (Streptococcus sp.; strain GC 4564): 2 µg/mL (≈ 1.36 µM)
- MIC Streptococcus pneumoniae (GC 4565) (Streptococcus sp.; strain GC 4565): 1 µg/mL (≈ 0.679 µM)
- MIC Escherichi coli (GC 4560) (Escherichia coli): 8 µg/mL (≈ 5.43 µM)
- MIC Coagulase Negative Staphylococcus (GC 4547) (Staphylococcus sp.; 5×10^5 CFU/mL): 8 µg/mL (≈ 5.43 µM)
- MIC Coagulase Negative Staphylococcus (GC 4548) (Staphylococcus sp.; 5×10^5 CFU/mL): 8 µg/mL (≈ 5.43 µM)
- MIC Coagulase Negative Staphylococcus (GC 4549) (Staphylococcus sp.; 5×10^5 CFU/mL): 8 µg/mL (≈ 5.43 µM)
- MIC Coagulase Negative Staphylococcus (GC 4551) (Staphylococcus sp.; 5×10^5 CFU/mL): 16 µg/mL (≈ 10.9 µM)
- MIC Coagulase Negative Staphylococcus (GC 6257) (Staphylococcus sp.; 5×10^5 CFU/mL): 8 µg/mL (≈ 5.43 µM)
- MIC Staphylococcus aureus (ATCC 29213) (Staphylococcus sp.; 5×10^5 CFU/mL): 16 µg/mL (≈ 10.9 µM)
- MIC Staphylococcus aureus (GC 1131) (Staphylococcus sp.; 5×10^5 CFU/mL): 16 µg/mL (≈ 10.9 µM)
- MIC Staphylococcus aureus (GC 3051) (Staphylococcus sp.; 5×10^5 CFU/mL): 16 µg/mL (≈ 10.9 µM)
- MIC Staphylococcus aureus (GC 3053) (Staphylococcus sp.; 5×10^5 CFU/mL): 16 µg/mL (≈ 10.9 µM)
- MIC Staphylococcus aureus (GC 4541) (Staphylococcus sp.; 5×10^5 CFU/mL): 8 µg/mL (≈ 5.43 µM)
- MIC Staphylococcus aureus (GC 4542) (Staphylococcus sp.; 5×10^5 CFU/mL): 16 µg/mL (≈ 10.9 µM)
- MIC Staphylococcus aureus (GC 4544) (Staphylococcus sp.; 5×10^5 CFU/mL): 16 µg/mL (≈ 10.9 µM)
- MIC Staphylococcus aureus (GC 4545) (Staphylococcus sp.; 5×10^5 CFU/mL): 16 µg/mL (≈ 10.9 µM)
- MIC Staphylococcus aureus-SMITH (GC 4543) (Staphylococcus sp.; 5×10^5 CFU/mL): 16 µg/mL (≈ 10.9 µM)
- MIC Staphylococcus aureus (ATCC 29213) (Staphylococcus sp.; strain ATCC 29213): 16 µg/mL (≈ 10.9 µM)
- MIC Staphylococcus aureus (GC 1131) (Staphylococcus sp.; strain GC 1131): 16 µg/mL (≈ 10.9 µM)
- MIC Staphylococcus aureus (GC 3051) (Staphylococcus sp.; strain GC 3051): 16 µg/mL (≈ 10.9 µM)
- MIC Staphylococcus aureus (GC 3053) (Staphylococcus sp.; strain GC 3053): 16 µg/mL (≈ 10.9 µM)
- MIC Staphylococcus aureus (GC 4541) (Staphylococcus sp.; strain GC 4541): 8 µg/mL (≈ 5.43 µM)
- MIC Staphylococcus aureus (GC 4542) (Staphylococcus sp.; strain GC 4542): 16 µg/mL (≈ 10.9 µM)
- MIC Staphylococcus aureus-SMITH (GC 4543) (Staphylococcus sp.; strain GC 4543): 16 µg/mL (≈ 10.9 µM)
- MIC Staphylococcus aureus (GC 4544) (Staphylococcus sp.; strain GC 4544): 16 µg/mL (≈ 10.9 µM)
- MIC Staphylococcus aureus (GC 4545) (Staphylococcus sp.; strain GC 4545): 16 µg/mL (≈ 10.9 µM)
- MIC Coagulase Negative Staphylococcus (GC 4547) (Staphylococcus sp.; strain GC 4547): 8 µg/mL (≈ 5.43 µM)
- MIC Coagulase Negative Staphylococcus (GC 4548) (Staphylococcus sp.; strain GC 4548): 8 µg/mL (≈ 5.43 µM)
- MIC Coagulase Negative Staphylococcus (GC 4549) (Staphylococcus sp.; strain GC 4549): 8 µg/mL (≈ 5.43 µM)
- MIC Coagulase Negative Staphylococcus (GC 4551) (Staphylococcus sp.; strain GC 4551): 16 µg/mL (≈ 10.9 µM)
- MIC Coagulase Negative Staphylococcus (GC 6257) (Staphylococcus sp.; strain GC 6257): 8 µg/mL (≈ 5.43 µM)
SMILES: CCOc1cc(C2OCC3OC(OC4C(CO)OC(Oc5ccc(CC6NC(=O)C(C(C)c7ccccc7)NC(=O)CNC(=O)C(CO)NC(=O)C(C(O)C7CNC(=N)N7C7OC(CO)C(O)C(O)C7O)NC(=O)C(C(O)C7CNC(=N)N7)NC6=O)cc5)C(O)C4O)C(O)C(O)C3O2)ccc1[N+](=O)[O-] (stereo not drawn) [Example 167, Cyclo[glycyl-β-methylphenylalanyl-O-[4-O-[4,6-O-(3-ethoxy-4-nitrobenzylidene)hexopyranosyl]hexopyranosyl]tyrosyl-3-(2-iminoimidazolidin-4-yl)seryl-3-(3-hexopyranosyl-2-iminoimidazolidin-4-yl)serylseryl]]
- MIC Staphylococcus haemolyticus (GC 4546) (Staphylococcus sp.; 5×10^5 CFU/mL): 16 µg/mL (≈ 10.9 µM)
- MIC Staphylococcus haemolyticus (GC 4546) (Staphylococcus sp.; strain GC 4546): 16 µg/mL (≈ 10.9 µM)
